Measurements: patent publication US7977322B2 (Vertex Pharmaceuticals Incorporated, priority 2004, dated 2011)

Target: T1, ΔF508-CFTR (Homo sapiens, UniProt P13569, DEL508-508)
T1 construct: expressed in transfected cells
Test: Membrane potential optical (FRET/VIPR) assay, identification of correction compounds
Assay type: cell-based
Details: Table 3, assay not given; for Emax: read-out: % Activity / % Efficacy (relative efficacy)
Method in brief: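 NIH3T3 mouse fibroblasts stably expressing ΔF508-CFTR were exposed to compound for 16 h at 37° C in serum-free medium, then loaded with DiSBAC2(3)/CC2-DMPE. After addition of 10 μM forskolin plus 20 μM genistein in Cl⁻-free gluconate bath (pH 7.4), depolarization from Cl⁻ efflux was read by FRET (VIPR II).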

T1 sequence (P13569 with tags, fused parts or gaps DEL508-508): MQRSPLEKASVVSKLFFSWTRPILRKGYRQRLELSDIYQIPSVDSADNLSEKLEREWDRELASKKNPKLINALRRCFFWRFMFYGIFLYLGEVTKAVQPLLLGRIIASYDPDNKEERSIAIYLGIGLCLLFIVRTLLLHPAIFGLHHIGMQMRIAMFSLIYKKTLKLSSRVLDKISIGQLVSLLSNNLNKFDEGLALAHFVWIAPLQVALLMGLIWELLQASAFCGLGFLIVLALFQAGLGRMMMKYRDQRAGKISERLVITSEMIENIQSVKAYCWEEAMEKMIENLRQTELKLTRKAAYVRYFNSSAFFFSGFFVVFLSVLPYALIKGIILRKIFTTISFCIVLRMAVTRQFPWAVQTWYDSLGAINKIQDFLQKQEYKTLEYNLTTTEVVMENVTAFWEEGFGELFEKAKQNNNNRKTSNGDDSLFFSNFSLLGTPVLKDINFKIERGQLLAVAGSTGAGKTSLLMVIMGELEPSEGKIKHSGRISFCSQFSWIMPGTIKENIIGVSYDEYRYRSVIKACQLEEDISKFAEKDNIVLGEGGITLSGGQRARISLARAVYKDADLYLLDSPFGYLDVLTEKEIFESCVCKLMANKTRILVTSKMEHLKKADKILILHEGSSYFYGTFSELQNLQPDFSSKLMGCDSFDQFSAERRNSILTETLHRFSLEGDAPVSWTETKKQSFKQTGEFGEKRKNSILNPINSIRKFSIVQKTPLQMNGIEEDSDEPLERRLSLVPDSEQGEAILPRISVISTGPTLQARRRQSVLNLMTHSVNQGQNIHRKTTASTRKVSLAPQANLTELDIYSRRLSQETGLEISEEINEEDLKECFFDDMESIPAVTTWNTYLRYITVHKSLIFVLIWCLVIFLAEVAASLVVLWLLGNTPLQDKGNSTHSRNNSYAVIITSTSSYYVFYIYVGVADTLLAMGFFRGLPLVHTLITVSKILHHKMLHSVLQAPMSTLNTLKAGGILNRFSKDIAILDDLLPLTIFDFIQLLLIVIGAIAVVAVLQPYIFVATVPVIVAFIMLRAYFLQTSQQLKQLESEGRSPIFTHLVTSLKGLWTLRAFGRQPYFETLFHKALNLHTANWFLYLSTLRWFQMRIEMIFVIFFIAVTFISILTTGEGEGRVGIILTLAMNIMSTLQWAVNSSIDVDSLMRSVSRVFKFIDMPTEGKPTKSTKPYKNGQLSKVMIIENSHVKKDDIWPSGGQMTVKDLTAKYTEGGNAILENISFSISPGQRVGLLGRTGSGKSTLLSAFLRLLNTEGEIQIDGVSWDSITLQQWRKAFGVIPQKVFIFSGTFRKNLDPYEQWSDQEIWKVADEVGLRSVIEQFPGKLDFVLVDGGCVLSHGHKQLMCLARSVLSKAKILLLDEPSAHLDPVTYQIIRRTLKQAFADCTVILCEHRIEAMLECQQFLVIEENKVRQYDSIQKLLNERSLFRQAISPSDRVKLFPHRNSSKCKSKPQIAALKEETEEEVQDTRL

Row | SMILES | EC50 | Emax | % Activity / % Efficacy (relative efficacy)
1 | O=C(Nc1ncc(C(OCCCCN2CCC(O)CC2)c2ccccc2Cl)s1)C1(c2ccc3c(c2)OCO3)CC1 (centres unmarked) [Example 279] | < 10 µM | – | +++ (“+++” means>100%)
2 | COc1ccc(-c2csc(NC(=O)C3(c4ccc(OC)cc4)CC3)n2)cc1 [Example 79] | < 10 µM | – | +++ (“+++” means>100%)
3 | COc1ccccc1Cc1cnc(NC(=O)C2(c3ccc4c(c3)OCO4)CC2)o1 [Example 169] | < 10 µM | – | ++ (“++” means between 25% to 100%)
4 | COc1cccc(F)c1Cc1cnc(NC(=O)C2(c3ccc4c(c3)OCO4)CC2)s1 [Example 196] | < 10 µM | – | +++ (“+++” means>100%)
5 | COc1ccc(C2(C(=O)Nc3ncc(Cc4ccccc4C#N)s3)CC2)cc1OC [Example 61] | < 10 µM | – | +++ (“+++” means>100%)

Now from value to compound:

Row | EC50 | Emax | % Activity / % Efficacy (relative efficacy) | SMILES
6 | 10 to 25 µM | 25 to 100% | – | CC(C)(C)[C@@H](CO)NC(c1cnc(NC(=O)C2(c3ccc4c(c3)OCO4)CC2)s1)c1ccccc1Cl (some centres unmarked) [Example 490]
7 | 10 to 25 µM | > 100% | – | Cc1ccccc1C(c1cnc(NC(=O)C2(c3ccc4c(c3)OCO4)CC2)s1)N1CC[C@@H](O)C1 (some centres unmarked) [Example 466]
8 | < 10 µM | > 100% | – | CC(CO)(CO)NC(c1cnc(NC(=O)C2(c3ccc4c(c3)OCO4)CC2)s1)c1ccccc1Cl (centres unmarked) [Example 431]
9 | < 10 µM | > 100% | – | CC(C)C[C@H](CO)NC(c1cnc(NC(=O)C2(c3ccc4c(c3)OCO4)CC2)s1)c1ccccc1F (some centres unmarked) [Example 482]
10 | < 10 µM | – | – | C[C@@H](CO)NC(c1cnc(NC(=O)C2(c3ccc4c(c3)OCO4)CC2)s1)c1ccccc1Cl (some centres unmarked) [Example 437]
11 | < 10 µM | > 100% | – | O=C(Nc1ncc(Cc2ccccc2Cl)s1)C1(c2ccccc2F)CCCCC1 [Example 306]
12 | < 10 µM | > 100% | – | CCN(CC)C(c1cccc(OC)c1)c1cnc(NC(=O)C2(c3ccc4c(c3)OCO4)CC2)s1 (centres unmarked) [Example 357]
